Results reported in patent US11040954B1, “CXCR3 receptor agonists” (RECEPTOS LLC, priority 2016, dated 2021).

What was measured:
[1] = Mouse pharmacokinetics after oral gavage, plasma drug concentration by LC-MS/MS (BALB/c); type: in vivo; conditions: 10 mg/kg, male mice; for Cmax / AUC(0-t): mouse, plasma; for AUC(0-t): read-out: AUC0-24
Description: (§1) Compounds were formulated in 5% DMSO/5% Tween20 in H2O, sonicated, vortexed, and put on stir plate overnight at a dose volume of 10 mL/kg. Balb/C (Jackson laboratories) or C57bl/6 (Taconic Biosciences) mice (8-9 weeks old) were acclimated to the colony for 3 days prior to dosing. Water and food were provided ab libitum. Compounds were administered by oral gavage. Groups of six animals received 3 to 4 bleeds per day with one terminal bleed. The time points were 30 min, 1 h, 2 h, 4 h, 6 h, 8 h, 24 h. Plasma was collected via centrifugation and analyzed for drug concentrations.
(§2) Preparation of Study Samples and Standards for Analysis by LC-MS/MS
(§3) 50 μl of plasma was aliquoted into a 96 well deep-well polypropylene plate (2 mL) to which 5 μL of DMSO was added. For standards, 5 μl of test compound in DMSO at […] the standard concentration was added to 50 μl of blank matrix in a 96 well deep-well polypropylene plate. For example, for a 300 nM standard, the 10× DMSO concentration was 3 μM. Study samples that require dilution are diluted with the appropriate blank matrix. For example, for a 10× dilution, 5 μL of study sample is added to 45 μl of blank matrix. Protein was precipitated from study samples and standards with the addition of 150 μl of acetonitrile. After a clean plate map was placed firmly over the top of the 96-well plate, a bench top shaker was used for 1 min to ensure complete precipitation of protein. The precipitated protein was pelleted by centrifuging for 3,000 rpm for 10 min at 20° C. and then the clear supernatant was transferred to a clean 96-well plate and spun again under the same conditions in order to pellet any solid material that may have been transferred.
(§4) Analysis of Study Samples and Standards with LCMS with MRM Detection
(§5) An Agilent 1200 HPLC with binary pump and a Leap CTC with fast wash autosampler were used to introduce samples to the mass spectrometer.
(§6) The column used was a Phenomenex Luna C8 30×2 mm 5 μm with a security guard. Mass detection was performed by an Applied Biosystems 4000 Qtrap in MRM mode and ionization was achieved by positive electrospray with a source temperature of 500° C. The ion transitions, […] potential and collision energies were dependent on the specific analyte.
(§7) Prepared samples were usually analyzed in reverse chronological order with bracketing standard curves. Typically at least 6 standards were used for quantification with a percent accuracy of +/−15% for all standards except at the LLOQ where a percent accuracy of +/−20% was allowed. The concentration time profile was fit using a one compartment model for the applicable mode of dosing using Phoenix WinNonLin 6.4.

[2] = Mouse pharmacokinetics after oral gavage, plasma drug concentration by LC-MS/MS (C57BL/6); type: in vivo, C57bl/6 mice; conditions: male mice; for Cmax / AUC(0-t): mouse, plasma; for AUC(0-t): read-out: AUC0-24
Description: as §1, §2, §3, §4, §5, §6, §7

CXCR3 = molecular target: T1, CXCR3 (Homo sapiens, UniProt P49682); assay: CXCR3 cAMP agonist assay (cAMP Hunter CHOK1 CXCR3 Gi cell line, forskolin-stimulated, HitHunter cAMP detection); type: cell-based; conditions: cAMP Hunter CHOK1 CXCR3 Gi cells, 20 μM forskolin, 30 minutes; read-out: Activity (CXCR3 cAMP agonist assay compound EC50)
T1 construct: host or cells: CHO-K1 (cAMP Hunter CHOK1 CXCR3 Gi cell line)
T1 sequence (P49682 1-368): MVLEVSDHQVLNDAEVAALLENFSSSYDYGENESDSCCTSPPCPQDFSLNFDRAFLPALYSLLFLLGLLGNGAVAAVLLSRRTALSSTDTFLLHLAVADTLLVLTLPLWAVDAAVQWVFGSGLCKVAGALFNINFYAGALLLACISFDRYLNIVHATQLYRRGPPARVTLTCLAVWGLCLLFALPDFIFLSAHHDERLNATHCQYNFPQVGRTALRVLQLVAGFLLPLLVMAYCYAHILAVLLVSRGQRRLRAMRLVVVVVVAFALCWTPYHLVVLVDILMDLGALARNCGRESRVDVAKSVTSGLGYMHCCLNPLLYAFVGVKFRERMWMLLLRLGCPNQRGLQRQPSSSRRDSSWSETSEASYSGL
How it was run: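 CHOK1 cells expressing human CXCR3 with Gi coupling, 50,000/well in suspension in HBSS/10 mM HEPES/0.1% BSA pH 7.4, were co-treated with 20 μM forskolin and compound (12-point, 0-10 μM, 1% DMSO) for 30 min. cAMP was read by enzyme-complementation luminescence; CXCL11 dose response set maximum efficacy.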

| SMILES | AUC0-24 [1] | apparent oral clearance (CL/F) [1] | Cmax [1] | AUC0-24 ([2]; C57BL/6, 10 mg/kg) | apparent oral clearance (CL/F) ([2]; C57BL/6, 10 mg/kg) | Cmax ([2]; C57BL/6, 10 mg/kg) | EC50 (CXCR3) | AUC(0-t) [1] | AUC(0-t) ([2]; C57BL/6, 10 mg/kg) | apparent oral clearance (CL/F) ([2]; C57BL/6, 60 mg/kg) | Cmax ([2]; C57BL/6, 60 mg/kg) | AUC(0-t) ([2]; C57BL/6, 60 mg/kg) |
| --- | --- | --- | --- | --- | --- | --- | --- | --- | --- | --- | --- | --- |
| N=C(N)NCCC[C@H](NC(=O)[C@@H]1Cc2ccccc2CN1C(=O)CCC(=O)c1ccccc1)C(=O)NCC1CCCCC1 [A] | BLQ | BQL | 4 nM | BQL | BQL | 2 nM | – | – | – | – | – | – |
| NCCCC[C@H](NC(=O)[C@@H]1Cc2ccccc2CN1C(=O)CCC(=O)c1ccccc1)C(=O)Nc1ccc(Cl)c(F)c1 [Compound 1-20] | – | 527 mL/min/kg | 230 nM | – | – | – | 50 to 250 nM | 0.53 µM·h | – | – | – | – |
| NCC[C@H](NC(=O)[C@@H]1Cc2ccccc2CN1C(=O)CCC(=O)c1ccccc1)C(=O)Nc1ccc(Cl)c(Cl)c1 [Compound 2-1, (S)—N—((S)-4-amino-1-((3,4-dichlorophenyl)amino)-1-oxobutan-2-yl)-2-(4-oxo-4-phenylbutanoyl)-1,2,3,4-tetrahydroisoquinoline-3-carboxamide] | – | 66 mL/min/kg | 1800 nM | – | – | – | 50 to 250 nM | 4.3 µM·h | – | – | – | – |
| NCCCC[C@H](NC(=O)[C@@H]1Cc2ccccc2CN1C(=O)CCC(=O)c1ccccc1)C(=O)NCC(c1ccccc1)c1ccccc1 [B] | BLQ | BQL | 7 nM | – | 9000 mL/min/kg | 30 nM | – | – | 0.029 µM·h | – | – | – |
| Cc1c(NC(=O)[C@H](CCCCN)NC(=O)[C@@H]2Cc3ccccc3CN2C(=O)CCC(=O)c2ccccc2)ccc(Cl)c1Cl [Compound 1-25] | – | 782 mL/min/kg | 70 nM | – | – | – | < 50 nM | 0.34 µM·h | – | – | – | – |

Next, values leading:

| AUC0-24 [1] | apparent oral clearance (CL/F) [1] | Cmax [1] | AUC0-24 ([2]; C57BL/6, 10 mg/kg) | apparent oral clearance (CL/F) ([2]; C57BL/6, 10 mg/kg) | Cmax ([2]; C57BL/6, 10 mg/kg) | EC50 (CXCR3) | AUC(0-t) [1] | AUC(0-t) ([2]; C57BL/6, 10 mg/kg) | apparent oral clearance (CL/F) ([2]; C57BL/6, 60 mg/kg) | Cmax ([2]; C57BL/6, 60 mg/kg) | AUC(0-t) ([2]; C57BL/6, 60 mg/kg) | SMILES |
| --- | --- | --- | --- | --- | --- | --- | --- | --- | --- | --- | --- | --- |
| – | 56 mL/min/kg | 800 nM | – | 246 mL/min/kg | 330 nM | < 50 nM | 4.9 µM·h | 1.2 µM·h | – | – | – | Cc1cc(NC(=O)[C@H](CCNC(C)C)NC(=O)[C@@H]2Cc3ccccc3CN2C(=O)CCC(=O)c2ccccc2)ccc1Cl [Compound 8-3] |
| – | 158 mL/min/kg | 1200 nM | – | 2346 mL/min/kg | 70 nM | < 50 nM | 1.7 µM·h | 0.11 µM·h | – | – | – | Cc1cc(NC(=O)[C@H](CCCCNC(C)C)NC(=O)[C@@H]2Cc3ccccc3CN2C(=O)CCC(=O)c2ccccc2)ccc1Cl [Compound 4-6] |
| – | 76 mL/min/kg | 900 nM | – | – | – | < 50 nM | 3.8 µM·h | – | – | – | – | Cc1c(Cl)ccc(NC(=O)[C@H](CCN)NC(=O)[C@@H]2Cc3ccccc3CN2C(=O)CCC(=O)c2ccccc2)c1C [Compound 2-26] |
| – | 23 mL/min/kg | 3300 nM | – | 38 mL/min/kg | 1000 nM | < 50 nM | 12.3 µM·h | 7 µM·h | 58 mL/min/kg | 3000 nM | 29 µM·h | NCC[C@H](NC(=O)[C@@H]1Cc2ccccc2CN1C(=O)CCC(=O)c1ccccc1)C(=O)Nc1ccc(Cl)c(Cl)c1F [Compound 2-24] |
| – | 10 mL/min/kg | 4200 nM | – | 19 mL/min/kg | 2900 nM | < 50 nM | 27 µM·h | 15.1 µM·h | – | – | – | Cc1cc(NC(=O)[C@H](CCN)NC(=O)[C@@H]2Cc3ccccc3CN2C(=O)CCC(=O)c2ccccc2)c(Cl)cc1Cl [Compound 2-22] |
| – | 86 mL/min/kg | 1900 nM | – | – | – | < 50 nM | 3.3 µM·h | – | – | – | – | Cc1ccc(NC(=O)[C@H](CCN)NC(=O)[C@@H]2Cc3ccccc3CN2C(=O)CCC(=O)c2ccccc2)cc1C(F)(F)F [Compound 2-7] |
| – | – | 3500 nM | – | 176 mL/min/kg | 900 nM | < 50 nM | – | 1.7 µM·h | 266 mL/min/kg | 2700 nM | 6.7 µM·h | Cc1cc(NC(=O)[C@H](CCN)NC(=O)[C@@H]2Cc3ccccc3CN2C(=O)CCC(=O)c2ccccc2)ccc1Cl [Compound 2-2] |
